System: Caco-2 polarized monolayer
Assay: Multiplex xMAP cytokine production, Caco-2 monolayer without immune cells
Assay type: cell-based, human
Details: 24 h; for EGF level / Eotaxin level / FGF-2 level / FLT-3L level / Fractalkine level / G-CSF level / GM-CSF level / GROa level / IFNa2 level / IFNg level / IL-1RA level / IL-1a level / IL-1b level / IL-2 level / IL-3 level / IL-4 level / IL-5 level / IL-6 level / IL-7 level / IL-8 level / IL-9 level / IL-10 level / IL-12 (p40) level / IL-12 (p70) level / IL-13 level / IL-15 level / IL-17A level / IL-17E/IL-25 level / IL-17F level / IL-18 level / IL-22 level / IL-27 level / IP-10 level / M-GSF level / MCP-1 level / MCP-3 level / MDC level / MIG level / MIP-1a level / MIP-1b level / PDGF-AA level / PDGF-AB/BB level / RANTES level / TGF-a level / TNFa level / TNFb level / VEGFa level / sCD40L level: 2 µM apical, basolateral medium
Experimental: To estimate the impact of Candida albicans on cytokine production by intestinal-like epithelium, Caco-2 polarized monolayer without immune cells was used. […] A decrease in concentrations of IL-13 and IL-18 was also observed.
For growing cells, mimicking epithelial barriers in vitro, Caco-2 cells were seeded onto 24-well polycarbonate Millicell cell culture inserts (0.4 μm, 0.6 cm^2 surface area) (Millipore, Burlington, MA, USA), precoated with 0.2% bovine gelatin (Sigma-Aldrich), at a density of 2.5 × 10^5 cells/cm^2. The cells were grown for 21 days in a complete DMEM/F12 (1:1) medium with re-feeding every 2–3 days with a fresh complete medium. The integrity of the Caco-2 cell monolayer was checked by measuring the transepithelial electrical resistance (TEER) using a Millicell-ERS Voltohmmeter (Millipore). Only cell monolayers with TEER > 400 Ωcm^2 (after subtracting TEER in blank inserts without Caco-2 cells) were used in transport across epithelial monolayer and cytokine production experiments.
Monocytes and moDCs were seeded into the wells of 48- and 24-well plates in the complete RPMI-1640 medium supplemented with 10% human AB serum (HABS, Capricorn Scientific) without antibiotics 24 h prior to the experiment, and kept in a humidified CO2-incubator (5% CO2, 37 °C). After 24 h, the medium in the wells of the 48-well plate was replaced by fresh complete RPMI-1640 medium with 10% HABS, supplemented with 2 µM of Psd1 for the sample wells or fresh medium alone for the control wells. Medium in the wells of the 24-well plate was replaced by fresh complete RPMI-1640 medium with 10% human serum without antibiotics. Then, Millicell inserts with Caco-2 monolayers with TEER > 400 Ωcm^2 were placed into the wells of the 24-well plate, containing monocytes or moDCs. Wells with Millicell inserts with Caco-2 monolayers without immune cells were used as control wells. Medium in apical chambers of Millicell inserts was replaced by fresh complete RPMI-1640 with 10% human serum medium containing Psd1 at the final concentration of 2 µM or Candida albicans at the concentration of 5 × 10^4 cells/mL or yeast cells together with the pea defensin at the same concentration. Fresh complete RPMI-1640 medium only with 10% human serum and without antibiotics was used in control wells. Plates were kept in CO2-incubator (5% CO2, 37 °C) for another 24 h. Culture supernatants from the wells of the 48-well plate and basolateral chambers of the 24-well plate were collected and stored at −70 °C degrees less than one month prior to the analytes assessment.
The following 48 analytes were measured at a protein level by multiplex xMAP technology using the MILLIPLEX Human Cytokine/Chemokine/Growth Factor Panel A kit (HCYTA-60K-PX48, Merck, Darmstadt, Germany): sCD40L, EGF, Eotaxin-1/CCL11, FGF-2/FGF-basic, Flt-3 ligand, Fractalkine/CX3CL1, G-CSF, GM-CSF, GROα/CXCL1, IFNα2, IFNγ, IL-1α, IL-1β, IL-1RA, IL-2, IL-3, IL-4, IL-5, IL-6, IL-7, IL-8/CXCL8, IL-9, IL-10, IL-12(p40), IL-12(p70), IL-13, IL-15, IL-17A/CTLA8, IL-17E/IL-25, IL-17F, IL-18, IL-22, IL-27, IP-10/CXCL10, MCP-1/CCL2, MCP-3/CCL7, M-CSF, MDC/CCL22, MIG/CXCL9, MIP-1α/CCL3, MIP-1β/CCL4, PDGF-AA, PDGF-AB/BB, RANTES/CCL5, TGFα, TNFα, TNFβ, and VEGF-A. Multiplex-based assay read-out was performed using the MAGPIX system (Merck) with the xPONENT 4.2 software (Merck) in accordance with the manufacturer’s instruction with overnight incubation of the samples with primary antibodies. A final analysis was carried out with the MILLIPLEX Analyst v5.1 software (Merck). Measurements were performed twice for each sample. Release of the analytes in control and experimental samples was compared with an unpaired two-sample t-test using GraphPad Prism v.8.0.1 (GraphPad Software, Inc., San Diego, CA, USA). The p values ≤ 0.05 were considered significant.

Psd1: pea defensin from Pisum sativum (UNIPROT P81929), recombinant peptide overexpressed in Escherichia coli (KTCEHLADTYRGVCFTNASCDDHCKNKAHLISGTCHNWKCFCTQNC; UniProt P81929 1-46, looked up)
EGF level (Caco-2+Candida+Psd1): 1.19 pg/mL
Eotaxin level (Caco-2+Candida+Psd1): <3.52↓ pg/ml
FGF-2 level (Caco-2+Candida+Psd1): <13.35↓ pg/ml
FLT-3L level (Caco-2+Candida+Psd1): <0.40↓ pg/ml
Fractalkine level (Caco-2+Candida+Psd1): <17.82↓ pg/ml
G-CSF level (Caco-2+Candida+Psd1): <3.01↓ pg/ml
GM-CSF level (Caco-2+Candida+Psd1): <0.89↓ pg/ml
GROa level (Caco-2+Candida+Psd1): 34.82 pg/mL
IFNa2 level (Caco-2+Candida+Psd1): <4.56↓ pg/ml
IFNg level (Caco-2+Candida+Psd1): <2.23↓ pg/ml
IL-1RA level (Caco-2+Candida+Psd1): <0.66↓ pg/ml
IL-1a level (Caco-2+Candida+Psd1): <3.42↓ pg/ml
IL-1b level (Caco-2+Candida+Psd1): <2.26↓ pg/ml
IL-2 level (Caco-2+Candida+Psd1): <0.95↓ pg/ml
IL-3 level (Caco-2+Candida+Psd1): <0.60↓ pg/ml
IL-4 level (Caco-2+Candida+Psd1): <1.14↓ pg/ml
IL-5 level (Caco-2+Candida+Psd1): <0.30↓ pg/ml
IL-6 level (Caco-2+Candida+Psd1): 0.67 pg/mL
IL-7 level (Caco-2+Candida+Psd1): <0.38↓ pg/ml
IL-8 level (Caco-2+Candida+Psd1): 4.2 pg/mL
IL-9 level (Caco-2+Candida+Psd1): <2.08↓ pg/ml
IL-10 level (Caco-2+Candida+Psd1): <1.24↓ pg/ml
IL-12 (p40) level (Caco-2+Candida+Psd1): <3.56↓ pg/ml
IL-12 (p70) level (Caco-2+Candida+Psd1): <1.68↓ pg/ml
IL-13 level (Caco-2+Candida+Psd1): <2.61↓ pg/ml
IL-15 level (Caco-2+Candida+Psd1): <1.43↓ pg/ml
IL-17A level (Caco-2+Candida+Psd1): <2.09↓ pg/ml
IL-17E/IL-25 level (Caco-2+Candida+Psd1): <18.85↓ pg/ml
IL-17F level (Caco-2+Candida+Psd1): <19.03↓ pg/ml
IL-18 level (Caco-2+Candida+Psd1): 2.95 pg/mL
IL-22 level (Caco-2+Candida+Psd1): <5.23↓ pg/ml
IL-27 level (Caco-2+Candida+Psd1): <11.43↓ pg/ml
IP-10 level (Caco-2+Candida+Psd1): 5.8 pg/mL
M-GSF level (Caco-2+Candida+Psd1): <24.28↓ pg/ml
MCP-1 level (Caco-2+Candida+Psd1): <2.03↓ pg/ml
MCP-3 level (Caco-2+Candida+Psd1): <4.18↓ pg/ml
MDC level (Caco-2+Candida+Psd1): <0.30↓ pg/ml
MIG level (Caco-2+Candida+Psd1): <3.51↓ pg/ml
MIP-1a level (Caco-2+Candida+Psd1): <1.88↓ pg/ml
MIP-1b level (Caco-2+Candida+Psd1): <0.16↓ pg/ml
PDGF-AA level (Caco-2+Candida+Psd1): 160.02 pg/mL
PDGF-AB/BB level (Caco-2+Candida+Psd1): <5.84↓ pg/ml
RANTES level (Caco-2+Candida+Psd1): <0.62↓ pg/ml
TGF-a level (Caco-2+Candida+Psd1): <0.63↓ pg/ml
TNFa level (Caco-2+Candida+Psd1): <3.89↓ pg/ml
TNFb level (Caco-2+Candida+Psd1): 1.64 pg/mL
VEGFa level (Caco-2+Candida+Psd1): 197.1 pg/mL
sCD40L level (Caco-2+Candida+Psd1): <4.88↓ pg/ml
EGF level (Caco-2+Psd1): 1.19 pg/mL
Eotaxin level (Caco-2+Psd1): <3.52↓ pg/ml
FGF-2 level (Caco-2+Psd1): <13.35↓ pg/ml
FLT-3L level (Caco-2+Psd1): 0.46 pg/mL
Fractalkine level (Caco-2+Psd1): <17.82↓ pg/ml
G-CSF level (Caco-2+Psd1): <3.01↓ pg/ml
GM-CSF level (Caco-2+Psd1): <0.89↓ pg/ml
GROa level (Caco-2+Psd1): 27.77 pg/mL
IFNa2 level (Caco-2+Psd1): <4.56↓ pg/ml
IFNg level (Caco-2+Psd1): <2.23↓ pg/ml
IL-1RA level (Caco-2+Psd1): <0.66↓ pg/ml
IL-1a level (Caco-2+Psd1): 3.99 pg/mL
IL-1b level (Caco-2+Psd1): <2.26↓ pg/ml
IL-2 level (Caco-2+Psd1): <0.95↓ pg/ml
IL-3 level (Caco-2+Psd1): <0.60↓ pg/ml
IL-4 level (Caco-2+Psd1): 2.07 pg/mL
IL-5 level (Caco-2+Psd1): <0.30↓ pg/ml
IL-6 level (Caco-2+Psd1): 2.29 pg/mL
IL-7 level (Caco-2+Psd1): <0.38↓ pg/ml
IL-8 level (Caco-2+Psd1): 11.44 pg/mL
IL-9 level (Caco-2+Psd1): <2.08↓ pg/ml
IL-10 level (Caco-2+Psd1): <1.24↓ pg/ml
IL-12 (p40) level (Caco-2+Psd1): <3.56↓ pg/ml
IL-12 (p70) level (Caco-2+Psd1): <1.68↓ pg/ml
IL-13 level (Caco-2+Psd1): 6.35 pg/mL
IL-15 level (Caco-2+Psd1): <1.43↓ pg/ml
IL-17A level (Caco-2+Psd1): <2.09↓ pg/ml
IL-17E/IL-25 level (Caco-2+Psd1): <18.85↓ pg/ml
IL-17F level (Caco-2+Psd1): <19.03↓ pg/ml
IL-18 level (Caco-2+Psd1): 3.42 pg/mL
IL-22 level (Caco-2+Psd1): <5.23↓ pg/ml
IL-27 level (Caco-2+Psd1): <11.43↓ pg/ml
IP-10 level (Caco-2+Psd1): 7.04 pg/mL
M-GSF level (Caco-2+Psd1): <24.28↓ pg/ml
MCP-1 level (Caco-2+Psd1): <2.03↓ pg/ml
MCP-3 level (Caco-2+Psd1): <4.18↓ pg/ml
MDC level (Caco-2+Psd1): <0.30↓ pg/ml
MIG level (Caco-2+Psd1): <3.51↓ pg/ml
MIP-1a level (Caco-2+Psd1): <1.88↓ pg/ml
MIP-1b level (Caco-2+Psd1): <0.16↓ pg/ml
PDGF-AA level (Caco-2+Psd1): 347.49 pg/mL
PDGF-AB/BB level (Caco-2+Psd1): <5.84↓ pg/ml
RANTES level (Caco-2+Psd1): <0.62↓ pg/ml
TGF-a level (Caco-2+Psd1): 0.67 pg/mL
TNFa level (Caco-2+Psd1): <3.89↓ pg/ml
TNFb level (Caco-2+Psd1): 5.02 pg/mL
VEGFa level (Caco-2+Psd1): 413.86 pg/mL
sCD40L level (Caco-2+Psd1): <4.88↓ pg/ml
IL-6, IL-8/CXCL8, and IP-10 production (Caco-2, 2 μM apical): increase
direct immunomodulatory action on epithelial cells (Caco-2, 2 μM apical): no significant direct immunomodulatory action

Reference: PMC10178127, “Immunomodulatory Effects of the Pea Defensin Psd1 in the Caco-2/Immune Cells Co-Culture upon Candida albicans Infection” (International Journal of Molecular Sciences, 2023)
